Earlier results, collected in US9884121B2, “Biomaterials and a method for making and using same” (Alumend, LLC, priority 2007, dated 2018).

Tested on: Skin-to-skin
Conditions: U.S. Pat. No. 5,817,303

For `C=C(C#N)C(=O)OCC` [Ethyl cyanoacrylate], the “Shear Strength” value is listed as 385 ± 119 g-f/cm^2.
